# Test results: publication PMC3572379, “Pharmacokinetic and pharmacodynamic effects of comedication of clopidogrel and dabigatran etexilate in healthy male volunteers” (European Journal of Clinical Pharmacology, 2012)
# Read-outs that look alike come from different tables or passages of the source. Marks after values point to notes of the source that are not given here.
# Experiments:
# [1] = Plasma pharmacokinetics (HPLC-MS/MS) in open-label drug–drug interaction trial
# Experimental: The treatment phase was divided into three separate parts, each with a different set of subjects. Part 1 (pilot study) was an open-label, multiple-dose (for dabigatran etexilate) and single-dose (for clopidogrel), fixed-sequence study. A single dose of clopidogrel 300 mg was given in addition to dabigatran etexilate 150 mg bid in steady state (Table 1). Part 2 (main study) was a randomized, open-label, multiple-dose, crossover study, with three periods of up to 5 days separated by washout periods of at least 14 days. The test treatment consisted of a clopidogrel 300 mg loading dose on day 1, followed by a 75 mg dose on day 2, then clopidogrel 75 mg qd in combination with dabigatran etexilate 150 mg bid on days 3–5 (Table 1). Part 3 (main study) was an open-label, multiple-dose (for dabigatran etexilate) and single-dose (for clopidogrel), fixed-sequence study. A single dose of clopidogrel 600 mg was given alone or in addition to dabigatran 150 mg bid at steady state (Table 1).
# Although there are no reported interactions of food with dabigatran etexilate or clopidogrel, the morning medication was administered with about 240 mL of water following an overnight fast of at least 10 h, and no food was allowed until 4 h after drug administration. According to the twice-daily regimen dabigatran etexilate was similarly administered again 12 h later. Subjects were not allowed to lie down during the 2 h following drug administration, and water was limited for 1 h before and after drug administration. On dosing days a light non-standardized breakfast was given 1 h after morning drug administration. On profile days, no food was given until 4 h after administration. No concomitant therapy was allowed during the study, except for prophylactic thyroid hormone replacement and for symptomatic therapy of adverse events (AEs) in need of treatment.
# For PK parameter evaluations, blood samples were taken for the determination of plasma concentrations of free, nonconjugated dabigatran, total dabigatran (after alkaline cleavage of conjugates), and the prodrug dabigatran etexilate, and of clopidogrel and SR26334.
# Blood samples were taken before and at specified intervals up to 24 h after the morning clopidogrel dose, and before and up to 24 h after the morning and evening dabigatran etexilate dose. Timings of PK/PD sampling are shown in Supplementary Table 1.
# Blood samples (∼2.7 mL for dabigatran and ∼4.0 mL for clopidogrel) were collected into tubes containing potassium ethylenediaminetetraacetic acid for PK analysis. Samples were centrifuged, and the resulting plasma samples were separated and stored at −70°C or below.
# Plasma concentrations of free, nonconjugated dabigatran; total dabigatran (sum of free and conjugated dabigatran measured after alkaline cleavage of conjugates); the prodrug dabigatran etexilate; clopidogrel; and SR26334 were determined by validated high-performance liquid chromatography tandem mass spectrometry (HPLC-MS/MS) at AAI Pharma Deutschland (Neu-Ulm, Germany). The calibration curves for free and total dabigatran covered a range from 1.00 to 400 ng/mL plasma in undiluted samples. […] Maximum imprecision and inaccuracy for quality control samples at concentrations of 3, 30, and 320 ng/mL were 6.62 and +5.86%, respectively. For the prodrug, maximum imprecision and inaccuracy were 6.63 and +2.83%, respectively.
# Calibration curves for clopidogrel and SR26334 covered concentration ranges of 0.01–10 ng/mL and 0.02–20 μg/mL, respectively, with an inaccuracy generally below 4% and imprecision below 9%. For blood coagulation parameters aPTT, ECT, and TT (PD analyses), ∼3 mL of blood were collected in sodium citrate monovettes at the time points indicated for PK analyses. The blood samples were centrifuged, frozen, and stored at −20°C or below.
# [2] = system: ADP-induced platelet aggregation; assay: ADP-induced inhibition of platelet aggregation (light transmission aggregometry in citrated PRP); assay type: in vivo, healthy male subjects; conditions: for Emax: Homo sapiens, Platelet
# Experimental: The primary endpoints for PD were area under the effect curve of ADP-induced inhibition of platelet aggregation (IPA) at steady state of clopidogrel over one dosing interval from 0–24 h after dosing (AUECIPA,τ,ss); maximum percentage change compared with baseline in ADP-induced platelet aggregation at steady state of clopidogrel (Emax,IPA,ss); AUEC from 0 to 24 h (AUECIPA,0–24) after the loading dose of clopidogrel 600 mg; and the maximum percentage change compared with baseline in ADP-induced platelet aggregation from 0 to 24 h (Emax,IPA,0–24) after the loading dose of clopidogrel 600 mg.
# The following PD parameters were also evaluated: • For clopidogrel, ADP-induced IPA was determined at predefined time points. • Capillary bleeding times were assessed (part 2 and part 3 of the study) before clopidogrel administration, 2, 4, and 12 h after clopidogrel administration, and following administration of dabigatran etexilate alone.
# For platelet aggregation testing, ∼9 mL of blood was collected into a 10 mL monovette containing citrate to yield a final concentration of 10.6 mM. Platelet-rich plasma (PRP) was prepared by centrifugation and removed from the red-cell sediment. Approximately 0.5 mL platelet-poor plasma (PPP) was prepared from PRP by further centrifugation. Inhibition of platelet aggregation was performed by light transmission aggregometry in citrated PRP, using an 8-channel platelet aggregation profiler (PAP 8) aggregometer (möLab, Germany). The PRP (0% light transmission) and PPP (100% light transmission) served as reference. After baseline adjustment, ADP in a final concentration of 20 μM was added and aggregation recorded for 6 min. Maximum aggregation (%) within the first 6 min after addition of ADP was determined.
# [3] = system: blood coagulation parameters (aPTT, ECT, TT); assay: Blood coagulation parameters aPTT, ECT and TT (anti-factor IIa); assay type: in vivo, healthy male subjects
# Experimental: The secondary endpoints included other PK parameters and the effects of clopidogrel on the PD of dabigatran assessed by ECT, aPTT, TT (including maximum effect ratio, ERmax) as well as the CBT.
# Calibration curves for clopidogrel and SR26334 covered concentration ranges of 0.01–10 ng/mL and 0.02–20 μg/mL, respectively, with an inaccuracy generally below 4% and imprecision below 9%. For blood coagulation parameters aPTT, ECT, and TT (PD analyses), ∼3 mL of blood were collected in sodium citrate monovettes at the time points indicated for PK analyses. The blood samples were centrifuged, frozen, and stored at −20°C or below. The aPTT, ECT, and TT parameters were analyzed on an MC10PLUS coagulometer using validated methods by BiochemA, Riegel, Germany. aPTT was measured using a kit from Roche Diagnostics (Mannheim, Germany) according to manufacturer’s instructions, and the ECT assay utilized ecarin from Pentapharm (Basel, Switzerland). Thrombin inhibition (TT), anti-factor IIa, was measured by the Hemoclot Thrombin Inhibitors Assay® (Hemoclot® TT #CK002K, HYPHEN BioMed, Neuville-sur-Oise, France) according to the manufacturer’s instructions. The Hemoclot kit was used for the quantitative measurement of direct thrombin inhibitors in plasma, with a clotting method based on the inhibition of a constant and defined concentration of thrombin.
# AUEC and ERmax of aPTT, ECT, and TT as well as CBT, and safety and tolerability were assessed descriptively as secondary parameters.
# [4] = Capillary bleeding time (Surgicutt device); assay type: in vivo, healthy male subjects; conditions: for maximum capillary bleeding time (CBT): part 2
# Experimental: The bleeding time was assessed by single measurements on the forearm using the Surgicutt® Bleeding Time Device (Product Number SUB50, International Technidyne, Edison, NJ, USA). Using a Surgicutt device, a standardized incision of 5 mm length and 1 mm depth was made in the skin. Every 30 s, the blood flow was wicked away cautiously with filter paper, so that the platelet plug remained intact, until the bleeding stopped. Normal bleeding time was under 8 min. For the CBT individual listings including the baseline value, the maximum value of the post-dose measurements, and the corresponding time of the maximum value were provided.
# [5] = Safety and tolerability assessment; assay type: in vivo, healthy male subjects
# [6] = cited from earlier work
# P-gp = conditions: cited from earlier work
# [7] = cited from earlier work; remark: listed apart in the source
# [8] = male, human, in vivo, po, 75 mg
# [9] = male, human, in vivo, po, 600 mg
# [10] = part 2, clopidogrel 75 mg qd + DE 150 mg bid vs clopidogrel 75 mg qd
# [11] = part 3, clopidogrel 600 mg + DE 150 mg bid vs clopidogrel 600 mg
# [12] = part 3, reference: clopidogrel 600 mg single dose, n 12
# [13] = part 2, reference: clopidogrel 75 mg qd alone, n=23
# [14] = part 2, test: clopidogrel 75 mg qd + DE 150 mg bid, n=21, clopidogrel metabolite
# [15] = part 3, DE 150 mg bid + clopidogrel 600 mg vs clopidogrel 600 mg
structure (smiles),measurement,setting,value
"COC(=O)[C@H](c1ccccc1Cl)N1CCc2sccc2C1 [Clopidogrel, clopidogrel]","AUCτ,ss, gMean",[1]; [8],1400^b pg·h/mL
same,"Cmax,ss, gMean",[1]; [8],0.625 ng/mL
same,"AUC0-24, gMean",[1]; [9],10.574 ng·h/mL
same,"CL/Fss, gMean",[1]; [9],911000 mL/min
same,"Cmax, gMean",[1]; [9],4.013 ng/mL
same,Emax,"[2]; part 1, after single dose clopidogrel 300 mg, data not shown, read-out: maximum inhibition of ADP-dependent platelet aggregation (Emax)",~50%
same,Emax,"[2]; part 2, reference: clopidogrel 75 mg qd, n 23, read-out: Emax, ss, mean (maximum percentage change in ADP-induced platelet aggregation)",58.8%
same,Emax,"[2]; part 2, test: clopidogrel 75 mg qd + DE 150 mg bid, n 21, read-out: Emax, ss, mean (maximum percentage change in ADP-induced platelet aggregation)",55.1%
same,Emax,"[2]; part 3, reference: clopidogrel 600 mg single dose, n 12, read-out: Emax, mean (maximum percentage change in ADP-induced platelet aggregation)",~60%
same,Emax,"[2]; part 3, test: clopidogrel 600 mg + DE 150 mg bid, n 11, read-out: Emax, mean (maximum percentage change in ADP-induced platelet aggregation)",66.8%
same,"AUECIPA, τ,ss difference test – reference",[2]; [10],−39.7 %·h
same,"AUECIPA, τ,ss difference test – reference, relative",[2]; [10],−8.0%
same,"AUECIPA, τ,ss, mean","[2]; part 2, reference: clopidogrel 75 mg qd, n 21",496 %·h
same,"AUECIPA, τ,ss, mean","[2]; part 2, test: clopidogrel 75 mg qd + DE 150 mg bid, n 21",456 %·h
same,AUEC0–24h difference test – reference,[2]; [11],−84.6 %·h
same,"AUEC0–24h difference test – reference, relative",[2]; [11],−6.7%
same,"AUEC0–24h of IPA, mean",[2]; [12],1264 %·h
same,"Emax, mean (maximum percentage change in ADP-induced platelet aggregation)",[2]; [12],66.0%
same,"AUEC0–24h of IPA, mean","[2]; part 3, reference: clopidogrel 600 mg single dose, n 12, listed as clopidogrel","1,264 %·h"
same,"AUEC0–24h of IPA, mean","[2]; part 3, test: clopidogrel 600 mg + DE 150 mg bid, n 11",1179 %·h
same,"AUEC0–24h of IPA, mean","[2]; part 3, test: clopidogrel 600 mg + DE 150 mg bid, n 11, listed as clopidogrel","1,179 %·h"
same,"effect on dabigatran PK/PD relationship (TT, ECT, aPTT vs plasma concentration)","[3]; part 2, DE given alone or in combination with clopidogrel",No effect
same,maximum capillary bleeding time (CBT),[4],prolonged
same,AEs considered related to the study drugs,"[5]; one subject each, parts 2 and 3",hematoma
same,"bleeding time, overall least square means",[6],1.96 times baseline
same,substrate of P-gp,P-gp,substrate of P-gp
CCOC(=O)CN[C@@H](C(=O)N1CC[C@H]1C(=O)NCc1ccc(/C(N)=N\O)cc1)C1CCCCC1 [ximelagatran],further prolongation of CBT,"[6]; phase I trial, in combination with acetylsalicylic acid (ASA) compared with ASA alone",about 40%
CCCCCCOC(=O)NC(=N)c1ccc(NCc2nc3cc(C(=O)N(CCC(=O)OCC)c4ccccn4)ccc3n2C)cc1 [dabigatran etexilate],effect of coadministration on maximum ADP-dependent platelet aggregation achieved after clopidogrel,"[2]; DE 150 mg coadministered, after single dose clopidogrel 300 mg",did not alter
same,"increase in gMean AUECτ,ss of aPTT","[3]; part 1, DE 150 mg bid steady state with single dose clopidogrel 300 mg vs DE alone",about 30%
same,"AUEC τ,ss and ERmax,ss of TT, ECT and aPTT after concomitant administration","[3]; part 2, clopidogrel 75 mg qd (300 mg loading dose) + DE 150 mg bid",not altered
same,"change in AUECτ,ss of aPTT","[3]; part 3, DE 150 mg bid with single dose clopidogrel 600 mg vs DE alone",approximately 36.5%
same,"dabigatran-related effect on TT, ECT and aPTT when clopidogrel coadministered","[3]; part 3, single dose clopidogrel 600 mg coadministered with DE 150 mg bid",slightly increased
same,CBT on coadministration compared with clopidogrel alone,"[4]; part 3, DE 150 mg bid with clopidogrel 600 mg vs single dose clopidogrel 600 mg alone",did not increase
same,overall safety,[5]; given alone or in combination with clopidogrel,did not seem to cause any safety issues
same,substrate for P-gp,P-gp,is a substrate for P-gp
[H]/N=C(/N)c1ccc(NCc2nc3cc(C(=O)N(CCC(=O)O)c4ccccn4)ccc3n2C)cc1 [dabigatran],"increase in bioavailability (AUCτ,ss)","[1]; male, human, in vivo",32%
same,"effect on coagulation parameters (aPTT, ECT, anti-factor IIa) when clopidogrel added","[3]; part 1, single dose clopidogrel 300 mg added to steady-state DE 150 mg bid",slightly increased
same,maximum capillary bleeding time (CBT),[4],did not prolong
same,glucuronide conjugates as share of total dabigatran in plasma,[7],about 20%
same,half-life,[7]; multiple-dose administration,14 to 17 h
same,half-life,[7]; single-dose administration,8 to 10 h
same,substrate for P-gp,P-gp,not
O=C(O)[C@H](c1ccccc1Cl)N1CCc2sccc2C1 [SR26334],AUC0–24,"[1]; part 1, clopidogrel 300 mg single dose with DE 150 mg bid","35,400 pg h/mL"
same,"AUCτ,ss ratio test/reference, gMean",[1]; [10],110%
same,"Cmax,ss ratio test/reference, gMean",[1]; [10],103%
same,"AUCτ,ss, gMean",[1]; [13],8008 ng·h/mL
same,"Cmax,ss, gMean",[1]; [13],2689 ng/mL
same,"AUCτ,ss, gMean",[1]; [14],8807 ng·h/mL
same,"Cmax,ss, gMean",[1]; [14],2760 ng/mL
same,"AUC0-24 ratio test/reference, gMean",[1]; [15],97.8%
same,"Cmax ratio test/reference, gMean",[1]; [15],85.7%
same,"AUC0-24, gMean","[1]; part 3, reference: clopidogrel 600 mg alone, n=12",84.3 ng·h/mL
same,"AUC0-24, gMean","[1]; part 3, test: DE 150 mg bid + single dose clopidogrel 600 mg",82.5 ng·h/mL
O=C(NC[C@H]1CN(c2ccc(N3CCOCC3=O)cc2)C(=O)O1)c1ccc(Cl)s1 [rivaroxaban],"bleeding time, overall least square means",[6],1.13 times baseline
